Laboratory results: ChEMBL document CHEMBL1201862, “PubChem BioAssay data set” (2004)
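Five compound concentrations were applied to cells in 96-well plates for 48 hours; endpoints were derived by simple linear interpolation of the resulting dose-response curve. Here, GI50 denotes the concentration required for 50% inhibition of growth.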 The source made the active and inactive calls. No stated cut-off is given here; in the data, active = GI50 up to about 1.1 µM and inactive = higher.

What was measured:
Test in all cases: growth of human tumour cells (NCI), 48 h
COLO 205 = system: COLO 205
NCI-H23 = system: NCI-H23
SK-MEL-2 = system: SK-MEL-2
CCRF-CEM = system: CCRF-CEM
HOP-62 = system: HOP-62
SK-MEL-28 = system: SK-MEL-28
SW-620 = system: SW-620
MOLT-4 = system: MOLT-4
SF-295 = system: SF-295
RPMI-8226 = system: RPMI-8226
SNB-19 = system: SNB-19
HCC 2998 = system: HCC 2998
DLD-1 = system: DLD-1
SF-268 = system: SF-268
KM12 = system: KM12
EKVX = system: EKVX
HCT-116 = system: HCT-116
M19-MEL = system: M19-MEL
NCI-H522 = system: NCI-H522
A549 = system: A549
OVCAR-3 = system: OVCAR-3
SK-OV-3 = system: SK-OV-3
LXFL 529 = system: LXFL 529
TK-10 = system: TK-10
OVCAR-4 = system: OVCAR-4
DMS-114 = system: DMS-114
786-0 = system: 786-0
RXF 393 = system: RXF 393
K562 = system: K562
UO-31 = system: UO-31
SF-539 = system: SF-539
SK-MEL-5 = system: SK-MEL-5
UACC-257 = system: UACC-257
M14 = system: M14
SNB-75 = system: SNB-75
SNB-78 = system: SNB-78
HOP-18 = system: HOP-18
NCI-H460 = system: NCI-H460
ACHN = system: ACHN
UACC-62 = system: UACC-62
OVCAR-8 = system: OVCAR-8
HCT-15 = system: HCT-15
NCI-H226 = system: NCI-H226
DMS-273 = system: DMS-273
SN12C = system: SN12C
HL-60 = system: HL-60
Malme-3M = system: Malme-3M
CAKI-1 = system: CAKI-1
LOX IMVI = system: LOX IMVI
IGROV-1 = system: IGROV-1
HT-29 = system: HT-29
KM-20L2 = system: KM-20L2
U-251 = system: U-251
OVCAR-5 = system: OVCAR-5
A498 = system: A498

Which GI50 (COLO 205) does the source give for `CC(=O)Nc1ccc(-c2nnc(SCC(=O)Nc3ccc(Cl)cc3)o2)cc1` here?
The GI50 was 17.6 µM (inactive).

And the GI50 (NCI-H23)?
The GI50 was 3.39 µM (inactive).

What about the GI50 (SK-MEL-2) of the same compound?
The GI50 was 17.5 µM (inactive).

And the GI50 (CCRF-CEM)?
Its GI50 is 3.5 µM (inactive).

What about the GI50 (HOP-62) of the same compound?
Its GI50 is 22.4 µM (inactive).

And the GI50 (SK-MEL-28)?
Its GI50 is 13.2 µM (inactive).

And the GI50 (SW-620)?
Its GI50 is 6.21 µM (inactive).

What about the GI50 (MOLT-4) of the same compound?
Its GI50 is 11.2 µM (inactive).

And the GI50 (SF-295)?
Its GI50 is 11.3 µM (inactive).

What about the GI50 (RPMI-8226) of the same compound?
The GI50 was 6.89 µM (inactive).

What about the GI50 (SNB-19) of the same compound?
Its GI50 is 20 µM (inactive).

And the GI50 (HCC 2998)?
Its GI50 is 17 µM (inactive).

What about the GI50 (DLD-1) of the same compound?
The GI50 was 10.4 µM (inactive).

And the GI50 (SF-268)?
Its GI50 is 4.53 µM (inactive).

And the GI50 (KM12)?
The GI50 was 13.7 µM (inactive).

What about the GI50 (EKVX) of the same compound?
Its GI50 is 21 µM (inactive).

What about the GI50 (HCT-116) of the same compound?
The GI50 was 7.74 µM (inactive).

And the GI50 (M19-MEL)?
The GI50 was 11.7 µM (inactive).

And the GI50 (NCI-H522)?
The GI50 was 2.34 µM (inactive).

What about the GI50 (A549) of the same compound?
Its GI50 is 16.8 µM (inactive).

And the GI50 (OVCAR-3)?
The GI50 was 9.06 µM (inactive).

What about the GI50 (SK-OV-3) of the same compound?
The GI50 was 16.4 µM (inactive).

What about the GI50 (LXFL 529) of the same compound?
Its GI50 is 8.97 µM (inactive).

And the GI50 (TK-10)?
The GI50 was 18.4 µM (inactive).

What about the GI50 (OVCAR-4) of the same compound?
Its GI50 is 13.1 µM (inactive).

What about the GI50 (DMS-114) of the same compound?
Its GI50 is 1.85 µM (inactive).

And the GI50 (786-0)?
The GI50 was 5.78 µM (inactive).

And the GI50 (RXF 393)?
The GI50 was 10 µM (inactive).

And the GI50 (K562)?
Its GI50 is 5.83 µM (inactive).

What about the GI50 (UO-31) of the same compound?
Its GI50 is 14.4 µM (inactive).

What about the GI50 (SF-539) of the same compound?
The GI50 was 16 µM (inactive).

What about the GI50 (SK-MEL-5) of the same compound?
The GI50 was 5.69 µM (inactive).

What about the GI50 (UACC-257) of the same compound?
The GI50 was 16.4 µM (inactive).

And the GI50 (M14)?
The GI50 was 14.5 µM (inactive).

What about the GI50 (SNB-75) of the same compound?
Its GI50 is 21.5 µM (inactive).

And the GI50 (SNB-78)?
The GI50 was 46.2 µM (inactive).

What about the GI50 (HOP-18) of the same compound?
The GI50 was 15 µM (inactive).

And the GI50 (NCI-H460)?
Its GI50 is 10 µM (inactive).

And the GI50 (ACHN)?
The GI50 was 12.7 µM (inactive).

And the GI50 (UACC-62)?
The GI50 was 4.89 µM (inactive).

And the GI50 (OVCAR-8)?
Its GI50 is 12.5 µM (inactive).

And the GI50 (HCT-15)?
Its GI50 is 13.9 µM.

What about the GI50 (NCI-H226) of the same compound?
The GI50 was 11.1 µM (inactive).

What about the GI50 (DMS-273) of the same compound?
Its GI50 is 14.5 µM (inactive).

What about the GI50 (SN12C) of the same compound?
Its GI50 is 10.4 µM (inactive).

What about the GI50 (HL-60) of the same compound?
The GI50 was 16.3 µM (inactive).

And the GI50 (Malme-3M)?
The GI50 was 13.6 µM (inactive).

What about the GI50 (CAKI-1) of the same compound?
The GI50 was 18 µM (inactive).

And the GI50 (LOX IMVI)?
The GI50 was 5.33 µM (inactive).

What about the GI50 (IGROV-1) of the same compound?
The GI50 was 12.2 µM (inactive).

What about the GI50 (HT-29) of the same compound?
Its GI50 is 10.6 µM (inactive).

What about the GI50 (KM-20L2) of the same compound?
The GI50 was 16.4 µM (inactive).

What about the GI50 (U-251) of the same compound?
The GI50 was 3.38 µM (inactive).

What about the GI50 (OVCAR-5) of the same compound?
Its GI50 is 16.4 µM (inactive).

What about the GI50 (A498) of the same compound?
The GI50 was 14.8 µM (inactive).

With `O=C(/C=N/c1ccccc1S)c1ccco1` as the compound, how does the GI50 (COLO 205) read?
The GI50 was 17.2 µM (inactive).

And the GI50 (NCI-H23)?
Its GI50 is 4.01 µM (inactive).

What about the GI50 (SK-MEL-2) of the same compound?
The GI50 was 16.4 µM (inactive).

And the GI50 (CCRF-CEM)?
The GI50 was 3.14 µM (inactive).

What about the GI50 (HOP-62) of the same compound?
Its GI50 is 3.66 µM (inactive).

What about the GI50 (SK-MEL-28) of the same compound?
Its GI50 is 15.8 µM (inactive).

What about the GI50 (SW-620) of the same compound?
Its GI50 is 14.7 µM (inactive).

And the GI50 (MOLT-4)?
Its GI50 is 5.32 µM (inactive).

What about the GI50 (SF-295) of the same compound?
The GI50 was 5.08 µM (inactive).

And the GI50 (RPMI-8226)?
Its GI50 is 14.8 µM (inactive).

And the GI50 (SNB-19)?
The GI50 was 4.74 µM (inactive).

And the GI50 (DLD-1)?
The GI50 was 6.56 µM (inactive).

And the GI50 (SF-268)?
Its GI50 is 18.7 µM (inactive).

And the GI50 (KM12)?
Its GI50 is 16.3 µM (inactive).

What about the GI50 (EKVX) of the same compound?
The GI50 was 10.7 µM (inactive).

And the GI50 (HCT-116)?
The GI50 was 3.15 µM (inactive).

What about the GI50 (M19-MEL) of the same compound?
The GI50 was 12.2 µM (inactive).

What about the GI50 (NCI-H522) of the same compound?
Its GI50 is 15.5 µM (inactive).

What about the GI50 (A549) of the same compound?
The GI50 was 5.11 µM (inactive).

What about the GI50 (OVCAR-3) of the same compound?
Its GI50 is 17.1 µM (inactive).

What about the GI50 (TK-10) of the same compound?
Its GI50 is 19.1 µM (inactive).

What about the GI50 (OVCAR-4) of the same compound?
The GI50 was 13.4 µM (inactive).

What about the GI50 (DMS-114) of the same compound?
The GI50 was 15.3 µM (inactive).

And the GI50 (RXF 393)?
Its GI50 is 15.4 µM (inactive).

What about the GI50 (K562) of the same compound?
Its GI50 is 18.2 µM (inactive).

And the GI50 (UO-31)?
Its GI50 is 1.86 µM (inactive).

And the GI50 (SF-539)?
The GI50 was 14.1 µM (inactive).

And the GI50 (SK-MEL-5)?
The GI50 was 17.3 µM (inactive).

What about the GI50 (UACC-257) of the same compound?
The GI50 was 17.7 µM (inactive).

And the GI50 (SNB-78)?
The GI50 was 16.9 µM (inactive).

And the GI50 (HOP-18)?
The GI50 was 17.7 µM (inactive).

What about the GI50 (UACC-62) of the same compound?
The GI50 was 15.5 µM (inactive).

What about the GI50 (OVCAR-8) of the same compound?
The GI50 was 11.5 µM (inactive).

What about the GI50 (HCT-15) of the same compound?
The GI50 was 7.66 µM.

What about the GI50 (DMS-273) of the same compound?
Its GI50 is 11.2 µM (inactive).

And the GI50 (SN12C)?
Its GI50 is 8.09 µM (inactive).

And the GI50 (HL-60)?
The GI50 was 4.17 µM (inactive).

And the GI50 (Malme-3M)?
Its GI50 is 18.9 µM (inactive).

What about the GI50 (CAKI-1) of the same compound?
The GI50 was 19.6 µM (inactive).

What about the GI50 (IGROV-1) of the same compound?
The GI50 was 9.33 µM (inactive).

What about the GI50 (HT-29) of the same compound?
Its GI50 is 13.3 µM (inactive).

What about the GI50 (KM-20L2) of the same compound?
Its GI50 is 14.5 µM (inactive).

What about the GI50 (U-251) of the same compound?
Its GI50 is 5.53 µM (inactive).
